The compounds below were run against α3β4 nAChRs (Homo sapiens (Human), UniProt P30926+P32297) (assay: Maximal gating efficacy on α3β4 nAChRs in Xenopus oocytes, two electrode voltage clamp). Conditions: maximal current relative to 1 mM ACh.
Assay type: cell-based
Protocol: (§1) Compounds of the invention were tested for effects on the function of human α4β2, α3β4 and α7 nicotinic acetylcholine receptors (nAChRs) expressed heterologously in Xenopus oocytes. […] Expression in oocytes was obtained as follows: pCI (Promega, UK) plasmid containing human α4, β2, β4 or α7 complementary DNA were injected as previously described (Moroni et al., 2006). To express (α4)3(β2)2 nACh receptors, a mixture of 10α4:1β2 cDNAs was injected into the nucleus of oocytes, whereas for (α4)2(β2)3 receptors the cDNA ratio injected was 1α4:10β2.
(§2) Functional studies: Recordings were performed manually using a Geneclamp amplifier (Molecular Devices, USA) or using an automated HiClamp system. In both cases the oocytes were impaled with two electrodes filled with 3 M KCl and the cells were held at −60 mV throughout the experiments.
(§3) Oocyte isolation and two-electrode voltage-clamp recordings on oocytes were carried out as previously described (Moroni et al., 2006; Carbone et al., 2009). […] A minimum interval of 5 min was allowed between agonist applications to ensure reproducible recordings. Oocytes were exposed to increasing concentrations of the compounds until no further increases in the response amplitude were obtained. This concentration was taken as the concentration that causes maximal responses on the receptors tested. The data summarised in Tables 1-4 were obtained from at least 5 experiments carried out on oocytes obtained from at least three different donors.
Maximal gating efficacy of the compounds on α3β4 nAChRs: The concentration of the compounds causing maximal activation of α3β4 nAChRs expressed heterologously in Xenopus oocytes was determined using two electrode voltage clamping.

Chain of α3β4 nAChRs (P32297 32-505): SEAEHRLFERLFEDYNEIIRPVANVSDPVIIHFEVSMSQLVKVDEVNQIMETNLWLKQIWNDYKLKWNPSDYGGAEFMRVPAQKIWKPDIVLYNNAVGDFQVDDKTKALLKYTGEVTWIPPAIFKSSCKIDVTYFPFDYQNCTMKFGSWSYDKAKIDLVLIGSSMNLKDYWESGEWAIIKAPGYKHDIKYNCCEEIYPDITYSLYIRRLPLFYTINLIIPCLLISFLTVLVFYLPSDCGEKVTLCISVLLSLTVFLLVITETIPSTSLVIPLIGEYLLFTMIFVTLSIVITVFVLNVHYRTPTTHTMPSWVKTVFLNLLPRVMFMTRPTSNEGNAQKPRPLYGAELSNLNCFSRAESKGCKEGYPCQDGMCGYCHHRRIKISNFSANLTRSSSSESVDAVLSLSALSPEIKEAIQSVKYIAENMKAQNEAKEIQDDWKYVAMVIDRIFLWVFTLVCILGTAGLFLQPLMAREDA
Chain of α3β4 nAChRs (P30926 22-498): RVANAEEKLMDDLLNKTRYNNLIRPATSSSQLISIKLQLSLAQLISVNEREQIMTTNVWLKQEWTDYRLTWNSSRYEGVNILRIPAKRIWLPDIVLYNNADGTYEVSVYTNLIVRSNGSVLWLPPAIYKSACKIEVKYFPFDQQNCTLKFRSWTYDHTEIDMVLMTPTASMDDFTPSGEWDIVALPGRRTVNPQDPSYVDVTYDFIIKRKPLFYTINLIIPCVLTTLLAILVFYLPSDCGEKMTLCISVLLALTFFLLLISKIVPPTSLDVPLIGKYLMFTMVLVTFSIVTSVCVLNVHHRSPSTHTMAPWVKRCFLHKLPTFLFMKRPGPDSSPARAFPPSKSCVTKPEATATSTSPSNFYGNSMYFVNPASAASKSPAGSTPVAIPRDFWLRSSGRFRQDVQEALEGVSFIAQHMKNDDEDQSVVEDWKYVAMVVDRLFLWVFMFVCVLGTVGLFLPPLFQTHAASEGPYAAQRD

| Compound | Relative efficacy (ACh) |
| --- | --- |
| CC(=O)NCc1cc2n(c(=O)c1)CC1CNC[C@@H]2C1.Cl (single isomer, unassigned; (-)) [Compound 148] | 0.034 ± 0.038 |
| Nc1cc2n(c(=O)c1)CC1CNC[C@@H]2C1 (single isomer, unassigned; (+)) [Compound 81, (+)4-aminocytisine] | 0.0210 ± 0.008 |
| CCc1cc2n(c(=O)c1Br)CC1CNCC2C1 (single isomer, unassigned; (-)) [BS74, (−)-(3-bromo-4-ethyl)cytisine] | 1.75 ± 0.56 |
| N#Cc1cc2n(c(=O)c1)CC1CNC[C@@H]2C1 (single isomer, unassigned; (-)) [Compound 140, (−)4-Cyanocytisine] | 0.172 ± 0.064 |
| Nc1cc2n(c(=O)c1Br)CC1CNCC2C1 (single isomer, unassigned; (+)) [BS71, (+)-(3-bromo-4-amino)cytisine] | 0.632 ± 0.067 |
| CC(=O)OCC[N+](C)(C)C [ACh, reference compound] | 1.0 |
| O=c1c(Br)c(O)cc2n1CC1CNCC2C1 (single isomer, unassigned; (-)) [BS70, (−)-(3-bromo-4-hydroxy)cytisine] | 0.108 ± 0.149 |

What follows are compounds tested against α4β2 nAChR (Homo sapiens (Human), UniProt P17787+P43681) (assay: not given). Conditions: ratio of Ki values.
Assay type: binding
Protocol: HEK 293 cells were grown in Dulbecco's modified Eagle medium supplemented with 10% fetal bovine serum, 1% L-Glutamine, 100 units/ml penicillin G, and 100 μg/streptomycin in a humidified atmosphere containing 10% CO2. The cDNAs encoding α3 and β4 or α4 and β2 (were transfected into the HEK 293 cells at 30% confluency). The cell transfections were carried out in 100 mm Petri dishes using 30 μL of JetPEI™ (Polypus, France) (1 mg/ml, pH 7.2) and 3 μg of each cDNA. After 24 h transfection, the cells were collected, washed with PBS by centrifugation, and used for binding analysis.
[^3H]-epibatidine saturation binding experiments to HEK transfected α3β4 or α4β2 receptors were performed by means of overnight incubation at 4° C. at concentrations ranging from 0.005 to 1 nM in a buffer containing 50 mM Tris-HCl, pH 7, 150 mM NaCl, 5 mM KCl, 1 mM MgCl2, 2.5 mM CaCl2 and 2 mg/ml BSA, in the presence (aspecific binding) or absence (total binding) of 100 nM cold epibatidine. Specific ligand binding was defined as total binding minus the binding in the presence of 100 nM cold epibatidine.
After incubation, the membranes of HEK cells transfected with α4β2* or α3β4 subtypes were washed by filtration on GFC filters with ice-cold PBS. The GFC filters were pre-soaked in polyethylenimine and filtered through an harvester apparatus. [^3H]-epibatidine binding was determined by means of liquid scintillation counting in a beta counter.
The ligand binding data were analyzed by means of nonlinear regression using Prism version 5 (GraphPad Software, Inc., La Jolla, Calif.). The Ki values were calculated from the experimental IC50 values using the Cheng-Prusoff equation for a single population of competitive sites: Ki=IC50/[1+(L/Kd)], where L is the concentration of radioligand used in each experiment and the Kd values were determined by saturation binding experiment. All of the assays were performed in duplicate and repeated at least two-three times.

Chain of α4β2 nAChR (P43681 29-627 limits assumed): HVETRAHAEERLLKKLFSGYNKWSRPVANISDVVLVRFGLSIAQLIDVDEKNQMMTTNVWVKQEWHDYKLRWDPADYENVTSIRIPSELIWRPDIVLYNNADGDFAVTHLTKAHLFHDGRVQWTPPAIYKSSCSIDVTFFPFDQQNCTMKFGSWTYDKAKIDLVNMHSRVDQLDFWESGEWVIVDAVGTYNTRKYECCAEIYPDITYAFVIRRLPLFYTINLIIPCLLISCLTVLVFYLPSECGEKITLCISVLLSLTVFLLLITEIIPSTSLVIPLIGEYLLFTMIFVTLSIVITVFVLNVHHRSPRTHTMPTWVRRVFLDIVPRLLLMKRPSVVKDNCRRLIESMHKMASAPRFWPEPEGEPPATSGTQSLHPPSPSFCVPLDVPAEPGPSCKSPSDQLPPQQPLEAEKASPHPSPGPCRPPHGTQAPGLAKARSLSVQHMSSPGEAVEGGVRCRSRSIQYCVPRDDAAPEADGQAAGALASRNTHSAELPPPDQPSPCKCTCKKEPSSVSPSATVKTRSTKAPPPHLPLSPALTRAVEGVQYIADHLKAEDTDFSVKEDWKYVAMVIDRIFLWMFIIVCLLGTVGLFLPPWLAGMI
Chain of α4β2 nAChR (P17787 26-502 limits assumed): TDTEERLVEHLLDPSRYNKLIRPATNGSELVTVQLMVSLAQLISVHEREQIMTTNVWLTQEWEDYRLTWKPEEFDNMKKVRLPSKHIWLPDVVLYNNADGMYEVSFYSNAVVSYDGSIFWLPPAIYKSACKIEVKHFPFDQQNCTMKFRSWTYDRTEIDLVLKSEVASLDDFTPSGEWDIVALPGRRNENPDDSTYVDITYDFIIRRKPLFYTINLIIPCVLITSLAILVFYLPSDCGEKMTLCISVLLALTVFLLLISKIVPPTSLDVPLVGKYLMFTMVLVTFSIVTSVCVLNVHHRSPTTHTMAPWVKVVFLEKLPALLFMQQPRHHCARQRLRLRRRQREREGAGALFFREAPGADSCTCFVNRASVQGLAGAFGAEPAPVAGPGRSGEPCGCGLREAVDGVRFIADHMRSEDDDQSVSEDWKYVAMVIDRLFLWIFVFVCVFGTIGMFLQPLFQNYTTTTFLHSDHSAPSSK

| Compound | Ratio α3β4/α4β2 |
| --- | --- |
| CN(C)c1cc2n(c(=O)c1)CC1CNC[C@@H]2C1 (single isomer, unassigned; (+)) [Compound 86, (+)4-(N,N′-dimethylamino)cytisine] | 5.8 |
| NCc1cc2n(c(=O)c1)CC1CNC[C@@H]2C1 (single isomer, unassigned; (-)) [Compound 144, (−)4-(aminomethyl)cytisine] | 78.0 |
| Cl.O=c1cc(/C=C/c2ccccc2)cc2n1CC1CNC[C@@H]2C1 (single isomer, unassigned; (+)) [Compound 114, (+)4-(E-(2-phenylethenyl))cytisine] | 145.5 |
| Cl.O=c1cc(C(F)(F)F)cc2n1CC1CNC[C@@H]2C1 (single isomer, unassigned; (-)) [Compound 77, (−)4-Trifluoromethylcytisine] | 12.9 |
| CC(=O)NCc1cc2n(c(=O)c1)CC1CNC[C@@H]2C1.Cl (single isomer, unassigned; (-)) [Compound 148] | 204.8 |
| (−)4-(3-Pyridinyl)cytisine [Compound 104] | 168.7 |
| Nc1cc2n(c(=O)c1)CC1CNC[C@@H]2C1 (single isomer, unassigned; (+)) [Compound 81, (+)4-aminocytisine] | 1561.0 |
| O=C(O)c1cc2n(c(=O)c1)CC1CNC[C@@H]2C1 (single isomer, unassigned; (-)) [Compound 120, (−)4-Carboxylic acidcytisine] | 57.7 |
| Cl.O=c1cc(C#Cc2ccccc2)cc2n1CC1CNC[C@@H]2C1 (single isomer, unassigned; (+)) [Compound 129, (+)4-(phenylacetylene)cytisine] | 32.2 |
| O=c1cc(N2CCOCC2)cc2n1CC1CNC[C@@H]2C1 (single isomer, unassigned; (+)) [Compound 92, (+)4-N-morpholinecytisine] | 70.6 |
| O=c1cc(-c2nnn[nH]2)cc2n1CC1CNC[C@@H]2C1 (single isomer, unassigned; (-)) [Compound 149, (−)4-tetrazoylcytisine] | 149.2 |
| N#Cc1cc2n(c(=O)c1)CC1CNC[C@@H]2C1 (single isomer, unassigned; (-)) [Compound 140, (−)4-Cyanocytisine] | 199.5 |
| Cl.O=c1ccccn1-c1cc2n(c(=O)c1)CC1CNC[C@@H]2C1 (single isomer, unassigned; (-)) [Compound 108, (−)4-(N-2-pyridone)cytisine] | 90.3 |
| CN(C)Cc1cc2n(c(=O)c1)CC1CNC[C@@H]2C1 [Compound 151, 4-(dimethylamino)methyl-(−)-cytisine] | 105.7 |
| CNCc1cc2n(c(=O)c1)CC1CNC[C@@H]2C1 (single isomer, unassigned; (-)) [Compound 152, (−)4-((N-methyl)aminomethyl)cytisine] | 807.0 |
| (+)4-(E-2-propenoate methyl ester)cytisine [Compound 112] | 152.8 |
| Cl.O=c1c(Br)c(I)cc2n1CC1CNC[C@@H]2C1 (single isomer, unassigned; (+)) [Compound 160, (+)3-Bromo-4-iodocytisine] | 50.0 |
| C=Cc1cc2n(c(=O)c1)CC1CNC[C@@H]2C1 (single isomer, unassigned; (+)) [Compound 116, (+)4-Vinylcytisine] | 100.1 |
| O=C(O)[C@@H]1CCCN1c1cc2n(c(=O)c1)CC1CNC[C@@H]2C1 (single isomer, unassigned; (-)) [Compound 138, (−)4-(N-(L-proline)cytisine] | 2.7 |
| Cl.NC(=O)c1cc2n(c(=O)c1)CC1CNC[C@@H]2C1 (single isomer, unassigned; (-)) [Compound 142, (−)4-(carboxyamido)cytisine] | 36.2 |
| O=c1cc(N2CCNCC2)cc2n1CC1CNC[C@@H]2C1 (single isomer, unassigned; (+)) [Compound 90, (+)4-(N-piperazinyl)cytisine] | 14.1 |
| NCC(=O)Nc1cc2n(c(=O)c1)CC1CNC[C@@H]2C1 [Compound 98] | 1670.0 |
| Cl.O=c1cc(CCc2ccccc2)cc2n1CC1CNC[C@@H]2C1 [?] | 21.7 |
| O=c1cc(NCc2ccccc2)cc2n1CC1CNC[C@@H]2C1 [Compound 78] | 125.0 |
| O=C(Nc1cc2n(c(=O)c1)CC1CNC[C@@H]2C1)c1ccccc1 (single isomer, unassigned; (+)) [Compound 96, (+)4-(N-Benzoylamino)cytisine] | 89.6 |
| Cl.O=c1cc(CC(F)(F)F)cc2n1CC1CNC[C@@H]2C1 (single isomer, unassigned; (-)) [Compound 79, (−)4-(2,2,2-Trifluoroethyl)cytisine] | 27.4 |

What follows are compounds tested against (α4)2(β2)3 nAChRs (Homo sapiens (Human), UniProt P17787+P43681) (assay: Maximal gating efficacy on (α4)2(β2)3 nAChRs in Xenopus oocytes, two electrode voltage clamp). Conditions: (α4)2(β2)3, high sensitivity receptors; maximal current relative to 1 mM ACh.
Assay type: cell-based
Protocol: as §1, §2, §3
Maximal gating efficacy of compounds on (α4)2(β2)3 receptors (high sensitivity receptors): The concentration of the compounds causing maximal activation of the (α4)2(β2)3 nAChRs expressed heterologously in Xenopus oocytes was determined using two electrode voltage clamping.

Chain of (α4)2(β2)3 nAChRs (P43681 29-627): as the sequence (P43681 29-627 limits assumed) above
Chain of (α4)2(β2)3 nAChRs (P17787 26-502): as the sequence (P17787 26-502 limits assumed) above

| Compound | Relative efficacy (ACh) |
| --- | --- |
| CC(=O)NCc1cc2n(c(=O)c1)CC1CNC[C@@H]2C1.Cl (single isomer, unassigned; (-)) [Compound 148] | 0.015 ± 0.021 |
| Nc1cc2n(c(=O)c1)CC1CNC[C@@H]2C1 (single isomer, unassigned; (+)) [Compound 81, (+)4-aminocytisine] | 0.024 ± 0.034 |
| CCc1cc2n(c(=O)c1Br)CC1CNCC2C1 (single isomer, unassigned; (-)) [BS74, (−)-(3-bromo-4-ethyl)cytisine] | 0.121 ± 0.171 |
| N#Cc1cc2n(c(=O)c1)CC1CNC[C@@H]2C1 (single isomer, unassigned; (-)) [Compound 140, (−)4-Cyanocytisine] | 0.026 ± 0.036 |
| CC(=O)OCC[N+](C)(C)C [ACh, reference compound] | 1.0 |

These compounds were tested against (α4)3(β2)2 nAChRs (Homo sapiens (Human), UniProt P17787+P43681) (assay: Maximal gating efficacy on (α4)3(β2)2 nAChRs in Xenopus oocytes, two electrode voltage clamp). Conditions: (α4)3(β2)2, low sensitivity stoichiometry; maximal current relative to 1 mM ACh.
Assay type: cell-based
Protocol: as §1, §2, §3
Maximal gating efficacy of the compounds: The concentration of the compounds of the invention causing maximal activation of the (α4)3(β2)2 nAChRs expressed heterologously in Xenopus oocytes was determined using two electrode voltage clamping.

Chain of (α4)3(β2)2 nAChRs (P43681 29-627): as the sequence (P43681 29-627 limits assumed) above
Chain of (α4)3(β2)2 nAChRs (P17787 26-502): as the sequence (P17787 26-502 limits assumed) above

| Compound | Relative efficacy (ACh) |
| --- | --- |
| CC(=O)NCc1cc2n(c(=O)c1)CC1CNC[C@@H]2C1.Cl (single isomer, unassigned; (-)) [Compound 148] | 0.041 ± 0.057 |
| Nc1cc2n(c(=O)c1)CC1CNC[C@@H]2C1 (single isomer, unassigned; (+)) [Compound 81, (+)4-aminocytisine] | 0.007 ± 0.01061 |
| CCc1cc2n(c(=O)c1Br)CC1CNCC2C1 (single isomer, unassigned; (-)) [BS74, (−)-(3-bromo-4-ethyl)cytisine] | 0.126 ± 0.067 |
| N#Cc1cc2n(c(=O)c1)CC1CNC[C@@H]2C1 (single isomer, unassigned; (-)) [Compound 140, (−)4-Cyanocytisine] | 0.050 ± 0.027 |
| CNCc1cc2n(c(=O)c1)CC1CNC[C@@H]2C1 (single isomer, unassigned; (-)) [Compound 152, (−)4-((N-methyl)aminomethyl)cytisine] | 0.031 ± 0.043 |
| Nc1cc2n(c(=O)c1Br)CC1CNCC2C1 (single isomer, unassigned; (+)) [BS71, (+)-(3-bromo-4-amino)cytisine] | 0.152 ± 0.1223 |
| CC(=O)OCC[N+](C)(C)C [ACh, reference compound] | 1 |
| O=c1c(Br)c(O)cc2n1CC1CNCC2C1 (single isomer, unassigned; (-)) [BS70, (−)-(3-bromo-4-hydroxy)cytisine] | 0.114 ± 0.113 |

Source: patent publication US11667638B2, “4-substitued cytisine analogues” (The University of Bristol, priority 2016, dated 2023)
